# Counter-ions that a name gives are not always drawn.
# Columns and labels:
# [1] = tested on: Mice With Acrylamide Induced Sensory Neuropathy; test: Tail Flick Test using mice with acrylamide-induced sensory neuropathy; type: in vivo, mouse (male ICR strain); details: CDP-choline·Na 100 mg/kg oral once a day for 1 week
# Description: Experiment: Tail Flick Test Using Mice With Acrylamide Induced Sensory Neuropathy (In Vivo) (1) Preparation of Mouse With Acrylamide-induced Sensory Neuropathy Acrylamide (2.5 mg/mice) dissolved in injectable physiological saline was intraperitoneally administered to male ICR strain mice (7-week-old, 10 per group) 5 times a week for 1 week to induce sensory neuropathy. (2) Administration of CDP-choline CDP-choline·Na was dissolved in distilled water, and oral administration thereof (100 mg/kg per dose) was started on the same day as acrylamide once a day for 1 week. (3) Tail Flick Test A photothermic stimulation was given to the tail of mouse, and the reaction latency up to the motion of the tail upon sensing the heat was measured. The measurement results of the reaction latency of a control group, an acrylamide administration group and an acrylamide administration group with administration of CDP-choline (100 mg/kg) are shown in FIG. 2.
# [2] = tested on: Vincristine-induced Sensory Neuropathy Mouse; test: Tail Flick Test using vincristine-induced sensory neuropathy mouse; type: in vivo, mouse (male ICR strain); details: CDP-choline·Na 500 mg/kg oral once a day for 10 weeks
# Description: Experiment: Tail Flick Test Using Vincristine-induced Sensory Neuropathy Mouse (In Vivo) (1) Preparation of Mouse with Vincristine-induced Sensory Neuropathy Vincristine (0.05 mg/kg for the first time, 0.125 mg/kg for the second time and the following) dissolved in injectable physiological saline was intraperitoneally administered to male ICR strain mice (7-week-old, 10 per group) twice a week for 10 weeks to induce sensory neuropathy. (2) Administration of CDP-choline CDP-choline·Na was dissolved in distilled water, and oral administration thereof (500 mg/kg per dose) was started on the same day as vincristine once a day for 10 weeks. (3) Tail Flick Test A photothermic stimulation was given to the tail of mouse, and the reaction latency up to the motion of the tail upon sensing the heat was measured. The measurement results of the reaction latency of a control group, a vincristine administration group and a vincristine administration group with administration of CDP-choline (500 mg/kg) are shown in FIG. 1.
structure (smiles),measurement,setting,value
"C[N+](C)(C)CCOP(=O)(O)OP(=O)([O-])OC[C@H]1O[C@@H](n2ccc(N)nc2=O)[C@H](O)[C@@H]1O [CDP-choline, cytidine 5′-diphosphocholine-monosodium salt]",suppression of acrylamide-induced sensory neuropathy (hyperesthesia-like symptom),"[1]; started on the same day as acrylamide i.p. 5 times a week, 10 mice per group",almost completely suppressed
same,reaction latency in Tail Flick Test,"[1]; acrylamide-treated mice, compared to control group, FIG. 2",of the same level as the control group
same,suppression of vincristine-induced sensory neuropathy (hyperesthesia-like symptom),"[2]; started on the same day as vincristine i.p. twice a week, 10 mice per group",almost completely suppressed
same,reaction latency in Tail Flick Test,"[2]; vincristine-treated mice, compared to control group, FIG. 1",of the same level as the control group

# Reference: patent US20060094685A1, “Medicinal composition for drug-induced neuropathy” (priority 2002, published 2006)
